According to US20220135622A1, “ANTIBACTERIAL PEPTIDES AND METHODS OF USE” (priority 2019, published 2022):
Square brackets hold non-standard residues; d marks the D form. Peptide text beside a SMILES is read from it. Dap = NC[C@H](N)C(=O)O

Key:
E. coli BW25113 = format: cell-based, Escherichia coli; conditions: Table 5; E. coli K-12 (BW25113), WT
How it was run: (§1)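 For MIC, bacteria (final OD600 ~0.0002) were incubated with 2-fold peptide dilutions (top 400–800 μM) in cation-adjusted MHB II with or without EDTA, 20 h at 37 °C, read by OD600. EDTA was 0.5 mM for E. coli and 0.125 mM for USA300. The growth-inhibition assay used log-phase cells at OD600 ~0.001, 4 h at 37 °C, BacTiter-Glo luminescence.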

E. coli mcr-1 = format: cell-based, Escherichia coli; conditions: Table 5; colistin^R
How it was run: as §1

S. aureus USA300 = assay: MIC assay, S. aureus USA300; format: cell-based, Staphylococcus aureus; conditions: Table 5; USA300 Gram-positive control
How it was run: as §1

E. coli imp4213 = assay: MIC assay, E. coli imp4213; format: cell-based, Escherichia coli; conditions: Table 5; permeable
How it was run: as §1

E. cloacae = assay: MIC assay, E. cloacae; format: cell-based, Enterobacter cloacae; conditions: Table 5; ATCC 222, WT
Experimental: (§2) Bacterial growth conditions. LB or Mueller Hinton II cation-adjusted broth (MHB II, BBL 212322) was prepared according to manufacturer's instructions and supplemented with arabinose at 0.02% for overnight growth or at indicated concentrations in the description of the figures. Bacterial cultures were grown at 37° C. When appropriate, media was supplemented with kanamycin (50 μg/mL), carbenicillin (50 μg/mL), chloramphenicol (12.5 or 25 μg/mL), hygromycin (200 μg/mL), and/or gentamicin (10 μg/mL).
(§3) Peptide sensitivity and MIC assays. Lyophilized peptides (Smartox Biotechnology, CPC Scientific. ABclonal) were solubilized to 10 mM in Tris buffer, pH 8, prior to making a 2-fold dilution series in MHBII cation adjusted broth with highest final assay concentration of 400-800 μM. Bacteria were grown to log phase and added to final OD600˜0.001. The final EDTA concentration was 0.5 mM for E. coli strains and 0.125 mM for USA300. The final volume of 10 μL/well in a 384 well black, clear bottom plate (Corning) was spun <1 min at <250×g and then incubated at 37° C. After 4 h, an equal volume (10 μL) of BacTiter-Glo™ (Promega) was added to each well and luminescence was read after 5 min on an EnVision plate reader (PerkinElmer). […] Plates were incubated at 37° C. for 20 h before measuring OD600 with an EnVision plate reader.

K. pneumoniae = format: cell-based, Klebsiella pneumoniae; conditions: Table 5; ATCC 43816, WT
How it was run: as §1

A. baumannii = format: cell-based, Acinetobacter baumannii; conditions: Table 5; ATCC 19606, WT
How it was run: as §1

P. aeruginosa = format: cell-based, Pseudomonas aeruginosa; conditions: Table 5; PA-14, WT
How it was run: as §1

E. coli-ATCC 25922 = assay: MIC assay, E. coli ATCC 25922; format: cell-based, Escherichia coli; conditions: Table 5; E. coli ATCC 25922, WT with O-antigen
Experimental: as §2, §3

E. coli pmrA^G53Y = assay: MIC assay, E. coli pmrA^G53Y (BW25113); format: cell-based, Escherichia coli; conditions: Table 5; colistin^R
Experimental: as §2, §3

E. coli K12 = assay: Time-kill: colony forming units of E. coli K12 over time; format: cell-based, Escherichia coli; conditions: E. coli K12, FIG. 16A
red blood cell = assay: Red blood cell lysis assay; format: cell-based; conditions: 50 μM, after 4 hrs, FIG. 16B
[1] = tested on: Staphylococcus aureus (USA300); assay: Bacterial growth inhibition, Staphylococcus aureus (USA300); format: cell-based; conditions: Gram-positive bacterium lacking LPS
Experimental: as §2, §3

[2] = tested on: Enterobacter cloacae, Klebsiella pneumoniae, Acinetobacter baumannii, and Pseudomonas aeruginosa; assay: MIC against wild-type bacterial pathogens (summary over species); format: cell-based; conditions: range over the four wild-type pathogens
Experimental: as §2, §3

[3] = tested on: E. coli K-12 (pmrA^G53E and mcr-1); assay: MIC against E. coli K-12 with PMX-resistance determinants (summary); format: cell-based, Escherichia coli; conditions: range over pmrA and mcr-1 strains
Experimental: as §2, §3

CSCC[C@H](NC(=O)[C@@H]1CCCN1C(=O)[C@H](Cc1ccc(O)cc1)NC(C)=O)C(=O)N[C@@H](CN)C(=O)N[C@@H](Cc1ccccc1)C(=O)N[C@@H](CCCNC(=N)N)C(=O)N[C@@H](CCCNC(=N)N)C(=O)N[C@@H](Cc1ccccc1)C(=O)N[C@@H](CC(C)C)C(=O)N[C@@H](CCC(=O)O)C(=O)N[C@@H](CCCCN)C(=O)N[C@@H](Cc1c[nH]c2ccccc12)C(=O)NCC(=O)N[C@@H](CC(C)C)C(=O)N[C@@H](CC(C)C)C(=O)N[C@@H](CCCNC(=N)N)C(N)=O [SEQ ID NO: 69, YPM(Dap)FRRFLEKWGLLR] (Ac-YPM[Dap]FRRFLEKWGLLR-NH2)
MICs (E. coli BW25113): 25 µM | MICs (E. coli mcr-1): 25 µM | MICs (S. aureus USA300): 400 µM | MICs (E. coli imp4213): 6.25 µM | MICs (E. cloacae): 12.5 µM | MICs (K. pneumoniae): 100 µM | MICs (A. baumannii): 12.5 µM | MICs (P. aeruginosa): 200 µM | MICs (E. coli-ATCC 25922): 50 µM | MICs (E. coli pmrA^G53Y): 12.5 µM | time-kill kinetics (CFUs over time) (E. coli K12): bactericidal | red blood cell lysis (red blood cell): no observe lysis | growth inhibition [1]: impacted only at very high concentrations | MICs [2]: 12.5 to 200 µM | MICs [3]: 12.5 to 25 µM
